For five compounds, IC50 results are on record in patent US20260308186A1, “STAT DEGRADERS AND USES THEREOF” (Recludix Pharma, Inc., priority 2023, published 2026).

In one assay the target is T1, pSTAT6 (Homo sapiens, UniProt P42226).
T1 construct: pY641-STAT6 MSD read-out
T1 sequence (P42226 1-847): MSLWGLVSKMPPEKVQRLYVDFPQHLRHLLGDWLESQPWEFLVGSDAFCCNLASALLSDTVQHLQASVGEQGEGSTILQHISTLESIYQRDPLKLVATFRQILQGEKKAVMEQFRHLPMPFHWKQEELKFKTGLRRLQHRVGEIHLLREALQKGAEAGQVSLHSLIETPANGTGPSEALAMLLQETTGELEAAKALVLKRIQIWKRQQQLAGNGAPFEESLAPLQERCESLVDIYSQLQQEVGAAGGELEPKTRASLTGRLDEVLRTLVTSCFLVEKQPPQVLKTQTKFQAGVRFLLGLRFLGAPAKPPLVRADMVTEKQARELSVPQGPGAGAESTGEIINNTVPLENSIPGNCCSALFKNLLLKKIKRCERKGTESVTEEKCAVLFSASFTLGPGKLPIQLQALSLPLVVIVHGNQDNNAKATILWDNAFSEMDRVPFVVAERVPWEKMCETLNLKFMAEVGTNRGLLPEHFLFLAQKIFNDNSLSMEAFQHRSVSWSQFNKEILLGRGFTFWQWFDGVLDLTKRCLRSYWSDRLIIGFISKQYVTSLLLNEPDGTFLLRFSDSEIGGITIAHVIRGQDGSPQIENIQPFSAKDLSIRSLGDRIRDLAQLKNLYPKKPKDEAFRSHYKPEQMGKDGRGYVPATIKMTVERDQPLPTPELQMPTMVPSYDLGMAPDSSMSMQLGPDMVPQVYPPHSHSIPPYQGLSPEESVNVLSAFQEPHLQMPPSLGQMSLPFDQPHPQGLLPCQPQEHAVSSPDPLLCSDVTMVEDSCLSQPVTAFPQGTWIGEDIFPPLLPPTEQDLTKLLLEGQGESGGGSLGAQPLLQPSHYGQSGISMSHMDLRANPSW
As to the kind of experiment: MSD-pSTAT-PBMC Assay, pSTAT6 (IL-4 stimulated PBMC). In kind it is cell-based. The source says: Cryopreserved Peripheral Blood Mononuclear Cells (PBMC) are from AllCells. Recombinant Human IL-4 and IL-6 are from Peprotech. Mouse monoclonal anti-STAT3 antibody, rabbit monoclonal anti-pY705-STAT3 antibody, rabbit monoclonal Anti-pY641-STAT6 antibody, and lysis buffer are from Cell Signaling Technology (CST). Mouse monoclonal anti-STAT6 antibody is from BioLegend. Assay plates, blocker, and anti-rabbit secondary antibody are from Meso Scale Discovery (MSD).
Cryopreserved PBMCs were thawed out and allowed to recover overnight in IMDM+10% heat-inactivated FBS prior to plating 50,000 (STAT3) or 25,000 (STAT6) cells per well in 96-well U-bottom tissue culture plates. Cells were treated with compound for 3 hrs. then stimulated with 10 ng/mL IL-6 (STAT3) or 1 ng/mL IL-4 (STAT6) for 10 min. Cells were then spun down and washed with ice-cold PBS prior to lysing the cell pellet with 1× lysis buffer (CST) with 1×HALT protease and phosphatase inhibitor cocktail (Thermo). Lysates were transferred to and incubated overnight at 4° C. with shaking in QuickPlex 96-well high bind assay plates (MSD) pre-coated overnight with 30 μL per well of 0.6 μg/mL mouse monoclonal anti-STAT3 antibody (STAT3) or 2 μg/mL mouse monoclonal anti-STAT6 antibody (STAT6) in 1×PBS, and pre-blocked for 1 hour with 3% Blocker-A (MSD). Captured protein in the assay plates were then washed and probed with 25 μL per well of 0.25 μg/ml rabbit monoclonal anti-pY705-STAT3 antibody (STAT3) or 0.18 μg/ml rabbit monoclonal Anti-pY641-STAT6 antibody (STAT6) in 1% Blocker-A for 1 hour at room temperature with shaking, then washed and probed with 25 ul per well of 1 ug/ml Sulfo-TAG Labeled Goat Anti-Rabbit Antibody (MSD) in 1% Blocker-A for 1 hour at room temperature with shaking. Assay plates were then washed and 150 μL of 1× Read Buffer-T (MSD) was added to each well prior to reading on an SQ120 MSD Plate Reader. Assay signal from each sample was subtracted by the signal from unstimulated control wells and normalized to DMSO control wells. IC50 values were calculated using Graph Pad Prism Dose-Response Nonlinear Regression with variable slope. For both pSTAT3 and pSTAT6 A=≤100 nM; B=>100-1000 nM; C=>1000-3000 nM; and D=>3 μM.

Another assay has as its target T2, STAT3 (Homo sapiens, UniProt P40763).
T2 construct: Recombinant STAT3 protein (STAT3(G127-1722))
Kind of assay: STAT3 Fluorescence Polarization (FP) Assay. In kind it is binding. Conditions: recombinant STAT3 25 nM; probe 5-FAM-GpYLPQTV-NH2 2 nM; 45 min, room temperature; read-out: STAT3 FP IC50. On the procedure:
STAT3 Fluorescence Polarization (FP) Assay
An FP assay was developed to determine IC50 values for test substances. Recombinant STAT3 protein (STAT3(G127-1722)) at 25 nM was combined with a fluorescently labeled, phosphotyrosine peptide probe (5-FAM-GpYLPQTV-NH2) at 2 nM in FP buffer (10 mM HEPES pH 7.4, 50 mM NaCl, 1 mM EDTA, 0.05% Tween 20.2 mM DTT). 50 μL of STAT3-probe mixture was added to serial diluted compounds in black, 96-well plates (Greiner BioOne 655076) to a final concentration of 1% DMSO. Reaction components were mixed, and FP was measured after 45-minute incubation at room temperature using a Tecan Spark multimode plate reader. FP signal (mP) was plotted against the log concentration of the test substances and IC50 values were calculated by nonlinear regression analysis using GraphPad Prism software. For STAT3 FP assay. A=≤100 nM; B=>100-1000 nM; C=>1-10 μM; and D=>10 μM.
(In fluorescence polarisation assays a small probe gives low polarisation when free and higher when bound to something large.)

For another assay, the target named is T3, STAT6 (Homo sapiens, UniProt P42226).
T3 construct: Recombinant STAT6 protein (STAT6(W123-T658))
T3 sequence (P42226 123-658): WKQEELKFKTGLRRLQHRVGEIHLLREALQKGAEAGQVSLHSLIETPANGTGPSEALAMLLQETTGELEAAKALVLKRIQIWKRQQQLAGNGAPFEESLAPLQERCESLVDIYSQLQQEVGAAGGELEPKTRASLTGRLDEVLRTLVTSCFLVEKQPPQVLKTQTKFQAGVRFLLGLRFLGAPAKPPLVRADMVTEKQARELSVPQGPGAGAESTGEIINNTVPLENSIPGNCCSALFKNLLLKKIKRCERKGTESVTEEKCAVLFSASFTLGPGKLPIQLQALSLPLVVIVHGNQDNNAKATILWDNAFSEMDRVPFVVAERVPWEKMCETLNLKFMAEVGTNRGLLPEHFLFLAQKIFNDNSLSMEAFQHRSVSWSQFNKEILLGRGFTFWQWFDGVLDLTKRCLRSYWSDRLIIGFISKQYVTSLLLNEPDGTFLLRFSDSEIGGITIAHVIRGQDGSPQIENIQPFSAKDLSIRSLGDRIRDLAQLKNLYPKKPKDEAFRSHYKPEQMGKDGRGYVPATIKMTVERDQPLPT
Kind of assay: STAT6 Fluorescence Polarization (FP) Assay. In kind it is binding. Conditions: recombinant STAT6(W123-T658) 250 nM; probe 5-FAM-Ap[…]-NH2 2 nM; 45 min, room temperature; read-out: STAT6 FP IC50. On the procedure:
STAT6 Fluorescence Polarization (FP) Assay
An FP assay was developed to determine IC50 values for test substances. Recombinant STAT6 protein (STAT6(W123-T658)) at 250 nM was combined with a fluorescently labeled, phosphotyrosine peptide probe (5-FAM-Ap[…]-NH2) at 2 nM in FP buffer (10 mM HEPES pH 7.4, 50 mM NaCl, 1 mM EDTA, 0.05% Tween 20, 2 mM DTT), 50 μL of STAT6-probe mixture was added to serial diluted compounds in black, 96-well plates (Greiner BioOne 655076) to a final concentration of 1% DMSO. Reaction components were mixed, and FP was measured after 45-minute incubation at room temperature using a Tecan Spark multimode plate reader. FP signal (mP) was plotted against the log concentration of the test substances and IC50 values were calculated by nonlinear regression analysis using GraphPad Prism software. For STAT6 FP assay. A=≤300 nM; B=>300-3000 nM; C=>3-30 μM; and D=>30 μM.

Setting [1] is: compound 3 hrs, then 1 ng/mL IL-4 for 10 min, pY641-STAT6, read-out: pSTAT6 IC50.

The structures appear in SMILES notation. Like-named read-outs stand apart in the source and are kept apart here.

T2 sequence (P40763 127-722 limits assumed): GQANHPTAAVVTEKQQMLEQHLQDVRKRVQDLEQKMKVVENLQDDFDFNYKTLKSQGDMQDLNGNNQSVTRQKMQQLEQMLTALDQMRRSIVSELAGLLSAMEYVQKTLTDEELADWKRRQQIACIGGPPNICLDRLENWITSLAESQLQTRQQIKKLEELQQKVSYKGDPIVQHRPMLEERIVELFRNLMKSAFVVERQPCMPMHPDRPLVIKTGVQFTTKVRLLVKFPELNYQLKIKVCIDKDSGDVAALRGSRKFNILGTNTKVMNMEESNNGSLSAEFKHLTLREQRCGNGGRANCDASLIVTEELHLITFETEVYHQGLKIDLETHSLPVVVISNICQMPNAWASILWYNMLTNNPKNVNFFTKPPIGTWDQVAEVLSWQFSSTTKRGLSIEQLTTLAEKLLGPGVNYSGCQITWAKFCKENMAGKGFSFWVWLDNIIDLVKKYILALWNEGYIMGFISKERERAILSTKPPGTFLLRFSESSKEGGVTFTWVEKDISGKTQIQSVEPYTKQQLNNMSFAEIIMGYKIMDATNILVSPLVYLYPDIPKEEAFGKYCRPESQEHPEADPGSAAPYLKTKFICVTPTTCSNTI

In the case of `CC(=O)N[C@H](C(=O)N1C[C@H](O)C[C@H]1C(=O)NCc1ccc(-c2scnc2C)cc1OCCCCN(C)C(=O)[C@@H]1CC[C@@H]2CCN(C(=O)c3noc4ccc(C)cc34)C[C@H](NC(=O)c3ccc4ccc(C(F)(F)P(=O)(O)O)cc4c3)C(=O)N21)C(C)(C)C` [Compound 31, ((7-(((5S,8S,10aR)-8-((4-(2-(((2S,4R)-1-((S)-2-acetamido-3,3-dimethylbutanoyl)-4-hydroxypyrrolidine-2-carboxamido)methyl)-5-(4-methylthiazol-5-yl)phenoxy)butyl)(methyl)carbamoyl)-3-(5-methylbenzo[d]isoxazole-3-carbonyl)-6-oxodecahydropyrrolo[1,2-a][1,5]diazocin-5-yl)carbamoyl)naphthalen-2-yl)difluoromethyl)phosphonic acid], the IC50 on pSTAT6 (setting [1]) was greater than 3 µM; at STAT3, 1 to 10 µM.
With `Cc1ccc2onc(C(=O)N3CC[C@H]4CC[C@@H](C(=O)N(C)CCCCCCC#Cc5cccc6c5CN(C5CCC(=O)NC5=O)C6=O)N4C(=O)[C@@H](NC(=O)c4ccc5ccc(C(F)P(=O)(O)O)cc5c4)C3)c2c1` (stereo partly drawn) [Compound 40, ((7-(((5S,8S,10aR)-8-((8-(2-(2,6-dioxopiperidin-3-yl)-1-oxoisoindolin-4-yl)oct-7-yn-1-yl)(methyl)carbamoyl)-3-(5-methylbenzo[d]isoxazole-3-carbonyl)-6-oxodecahydropyrrolo[1,2-a][1,5]diazocin-5-yl)carbamoyl)naphthalen-2-yl)fluoromethyl)phosphonic acid], the IC50 on pSTAT6 (setting [1]) was greater than 3 µM; on STAT3, greater than 10 µM; on STAT6, less than 0.3 µM.
In the same order, the values of `Cc1ccc2onc(C(=O)N3CC[C@H]4CC[C@@H](C(=O)N(C)CCCC(=O)N[C@H](C(=O)N5C[C@H](O)C[C@H]5C(=O)N[C@@H](C)c5ccc(-c6scnc6C)cc5)C(C)(C)C)N4C(=O)[C@@H](NC(=O)c4ccc5ccc(C(F)(F)P(=O)(O)O)cc5c4)C3)c2c1` [Compound 29, (difluoro(7-(((5S,8S,10aR)-8-((4-(((S)-1-((2S,4R)-4-hydroxy-2-(((S)-1-(4-(4-methylthiazol-5-yl)phenyl)ethyl)carbamoyl)pyrrolidin-1-yl)-3,3-dimethyl-1-oxobutan-2-yl)amino)-4-oxobutyl)(methyl)carbamoyl)-3-(5-methylbenzo[d]isoxazole-3-carbonyl)-6-oxodecahydropyrrolo[1,2-a][1,5]diazocin-5-yl)carbamoyl)naphthalen-2-yl)methyl)phosphonic acid] are greater than 3 µM, 1 to 10 µM and less than 0.3 µM.
For the compound `CCCOC(=O)[C@H](C)NP(=O)(Cc1ccc2ccc(C(=O)N[C@H]3CN(C(=O)c4n[nH]c5ccc(C)cc45)CC[C@H]4CC[C@@H](C(=O)N(C)CCCCCCC#Cc5cccc6c5CN(C5CCC(=O)NC5=O)C6=O)N4C3=O)cc2c1)Oc1ccccc1` (stereo partly drawn) [Compound 16, propyl (((7-(((5S,8S,10aR)-8-((8-(2-(2,6-dioxopiperidin-3-yl)-1-oxoisoindolin-4-yl)oct-7-yn-1-yl)(methyl)carbamoyl)-3-(5-methyl-1H-indazole-3-carbonyl)-6-oxodecahydropyrrolo[1,2-a][1,5]diazocin-5-yl)carbamoyl)naphthalen-2-yl)methyl)(phenoxy)phosphoryl)-L-alaninate], the IC50 at pSTAT6 (read-out: pSTAT6 IC50, compound 3 hrs, then 1 ng/mL IL-4 for 10 min, pY641-STAT6) was greater than 3 µM.
In the case of `Cc1ccc2onc(C(=O)N3CC[C@H]4CC[C@@H](C(=O)N(C)CCCCCCC#Cc5cccc6c5CN(C5CCC(=O)NC5=O)C6=O)N4C(=O)[C@@H](NC(=O)c4ccc5ccc(C(F)(F)P(=O)(O)OCCSC(=O)CC(C)C)cc5c4)C3)c2c1` (stereo partly drawn) [Compound 23, S-(2-((((7-(((5S,8S,10aR)-8-((8-(2-(2,6-dioxopiperidin-3-yl)-1-oxoisoindolin-4-yl)oct-7-yn-1-yl)(methyl)carbamoyl)-3-(5-methylbenzo[d]isoxazole-3-carbonyl)-6-oxodecahydropyrrolo[1,2-a][1,5]diazocin-5-yl)carbamoyl)naphthalen-2-yl)difluoromethyl)(hydroxy)phosphoryl)oxy)ethyl) 3-methylbutanethioate], the IC50 at pSTAT6 (setting [1]) is greater than 3 µM.
